Values of other authors in patent US6596884B2, “Synthesis of hydrogen peroxide” (University of Pittsburgh, priority 1998, dated 2003).

Conditions: obtained by extrapolation of the data from Santacesaria et al., Ind. Eng. Chem. Res., 1994, 33, 277

Q: With `CCc1ccc2c(c1)C(=O)c1ccccc1C2=O` [Entry 2-EtAQ] as the molecule, how does the kc read?
A: 0.47^(3) cm^3/(g s)
